Values joined by “and” are separate entries in the source; they are usually repeats but may differ in a detail not shown here. Equal entries are not always repeated.
Columns and labels:
[1] = Chronic; format: in vivo, beagle dogs
[2] = system: Tau; assay: Tau biochemistry and histology in 3xTg-AD mice; format: in vivo, mouse
[3] = system: APP/Aβ; assay: APP metabolism and Aβ accumulation in brain of treated mice; format: in vivo, mouse; settings: 5 mg/kg/d
[4] = system: APP/PS1 transgenic mice; assay: Synapse density in dentate gyrus; format: in vivo, mouse; settings: 5 mg/kg/d, 7 weeks
[5] = system: APP/PS1 transgenic mice; assay: Glial reaction in cortex; format: in vivo, mouse; settings: 5 mg/kg/d, 7 weeks
[6] = system: NR2B subunit of NMDA-type Glu receptors; assay: Acute brain slice assay, pY-1472 NR2B immunoblot relative to total NR2B; format: cell-based, mouse
[7] = system: Pyk2; assay: Acute brain slice assay, p-Pyk2; format: cell-based, mouse
[8] = system: APP/PS1 transgenic mice; assay: Novel object recognition; format: in vivo, mouse; settings: 5 mg/kg/d, 6 weeks treatment
[9] = system: APP/PS1 transgenic mice; assay: Morris water maze; format: in vivo, mouse
[10] = system: Pyk2; assay: Activated pPyk2 levels in brain of APP/PS1 and WT mice; format: in vivo, mouse
[11] = ref [27]; cited from earlier work
[12] = AZD0530 pharmacokinetics in mice; format: in vivo, mouse
[13] = biological target: Pyk2 (Homo sapiens, UniProt Q14289); assay: LanthaScreen Europium Kinase Binding Assay
Sequence of Pyk2 (Homo sapiens, UniProt Q14289) (Q14289 whole entry): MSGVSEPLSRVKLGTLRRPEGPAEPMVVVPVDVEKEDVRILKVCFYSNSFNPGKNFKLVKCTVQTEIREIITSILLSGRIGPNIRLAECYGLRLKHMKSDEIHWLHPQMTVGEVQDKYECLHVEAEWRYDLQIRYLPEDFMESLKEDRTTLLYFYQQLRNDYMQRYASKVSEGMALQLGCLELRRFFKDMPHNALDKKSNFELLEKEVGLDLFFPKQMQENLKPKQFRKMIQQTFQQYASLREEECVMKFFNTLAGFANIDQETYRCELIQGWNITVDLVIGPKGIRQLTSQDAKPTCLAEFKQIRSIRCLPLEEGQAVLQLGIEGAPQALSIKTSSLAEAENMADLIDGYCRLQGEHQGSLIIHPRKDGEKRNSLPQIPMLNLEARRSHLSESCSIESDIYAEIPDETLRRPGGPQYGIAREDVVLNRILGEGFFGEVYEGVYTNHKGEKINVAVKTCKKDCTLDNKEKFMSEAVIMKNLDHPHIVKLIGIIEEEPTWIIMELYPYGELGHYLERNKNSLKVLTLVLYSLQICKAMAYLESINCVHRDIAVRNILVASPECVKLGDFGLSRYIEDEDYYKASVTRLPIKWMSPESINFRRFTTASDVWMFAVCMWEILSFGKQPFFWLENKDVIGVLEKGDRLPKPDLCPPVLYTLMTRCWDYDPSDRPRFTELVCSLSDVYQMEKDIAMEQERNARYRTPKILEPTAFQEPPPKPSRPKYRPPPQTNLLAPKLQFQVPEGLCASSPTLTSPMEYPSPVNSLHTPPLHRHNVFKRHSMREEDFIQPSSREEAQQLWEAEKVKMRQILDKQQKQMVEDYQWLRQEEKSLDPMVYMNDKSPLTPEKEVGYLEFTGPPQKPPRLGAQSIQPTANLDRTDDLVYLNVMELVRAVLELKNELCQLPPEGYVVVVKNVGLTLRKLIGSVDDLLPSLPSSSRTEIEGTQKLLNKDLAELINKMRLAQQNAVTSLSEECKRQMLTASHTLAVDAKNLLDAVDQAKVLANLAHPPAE

[14] = RIPA extracts of TBS-insoluble material, 5 mg/kg/d 40 days
[15] = RIPA-insoluble fractions, 5 mg/kg/d 40 days
[16] = APP/PS1 mice, 5 mg/kg/d, 1-2 weeks treatment
[17] = APP/PS1 mice, 5 mg/kg/d, 3-5 weeks treatment

CN1CCN(CCOc2cc(OC3CCOCC3)c3c(Nc4c(Cl)ccc5c4OCO5)ncnc3c2)CC1 [AZD0530, N-(5-chloro-1,3-benzodioxol-4-yl)-7-[2-(4-methylpiperazin-1-yl)ethoxy]-5-(tetrahydro-2H-pyran-4-yloxy)quinazolin-4-amine]
NOAEL at 273 days ([1]; both, beagle, dog, in vivo, po): > 5 mg/kg/day
body weight, hematological and coagulation parameters vs vehicle ([1]; dog, 0.5, 2 or 5 mg/kg/d, 273 days): no statistically significant difference
tolerability ([1]; dog, 39 weeks oral gavage at 0.5, 2 and 5 mg/kg/day): tolerated at all dose levels tested
abnormal measurement or pathology ([1]; dog, any group including 5 mg/kg/d, 273 days): No significantly abnormal measurement or evidence of pathology was detected
human Tau transgene mRNA (qRT-PCR) ([2]; 3xTg-AD mice, 5 mg/kg/d, data not shown): not changed
decrease of pTau pS396 vs control 3xTg [2, 14]: 53%
decrease of total Tau vs control 3xTg [2, 14]: 74%
decrease of insoluble human Tau [2, 15]: 56%
decrease of insoluble total Tau [2, 15]: 41%
APP/Aβ metabolism ([3]; 3xTg-AD mice, data not shown): no effect
APP fragments, Aβ plaque and different Aβ species vs vehicle-treated transgenic mice ([3]; APP/PS1 mice, 7 weeks): no difference
synapse density (PSD-95, SV2a puncta) ([4]; APP/PS1 transgenic mice): fully restores synaptic puncta to WT levels
synapse density (PSD-95, SV2a puncta) ([4]; WT mice): does not alter synapse density
astrocytic reaction (GFAP) [5]: no significant change
extent of microglial induction (Iba1) [5]: significantly reduced
basal phosphorylation of NR2B ([6]; brain slices without Aβo): suppresses
Aβo-induced phosphorylation of NR2B ([6]; brain slices, 1 μM Aβo 30 min): full blocks
basal Pyk2 activation ([7]; brain slices without Aβo): suppresses
Aβo stimulation of Pyk2 activation ([7]; brain slices, 1 μM Aβo 30 min): blocks
Novel Object Recognition performance [8]: performance equal to the WT mice
water maze performance ([9]; APP/PS1 mice, 2 mg/kg/d, 3-5 weeks treatment): fails to improve water maze performance
impaired rate of acquisition during swims to a hidden platform [9, 16]: no improvement
memory recall during 60 sec probe trial [9, 16]: no improvement
latencies to the hidden platform (spatial learning) [9, 17]: eliminates the pre-existing transgenic deficit
probe trial, preference for target quadrant [9, 17]: same strong preference for the target quadrant as do WT mice
latencies to a hidden platform ([9]; WT mice, 5 mg/kg/d): not altered
increase of p(Y402)Pyk2 in hippocampal CA1 and CA3 cell body layers (histology) ([10]; APP/PS1 mice, 5 mg/kg/d for 7 weeks): reversed by AZD0530 treatment
pPyk2 level ([10]; WT mice): does not significantly alter pPyk2
activated pPyk2 level (immunoblot), hippocampus ([10]; aged APP/PS1 mice, 5 mg/kg/d): reduces activated pPyk2 level to that of WT mice exposed to vehicle
half-life of the compound in humans [11]: between one and two days
inhibition at 5 mg/kg/day ([12]; Mus musculus, po, read-out: expected inhibition of Fyn kinase activity in brain): ≥ 50%
apparent brain half-life ([12]; mouse, 5 mg/kg/d for 3 days): 16 h
peak brain level ([12]; mouse, 5 mg/kg/d oral b.i.d., 30-60 min after dosing, 5 mg/kg/day): 27 ng/g and 50 nM
peak CSF level ([12]; mouse, 5 mg/kg/d, one pooled sample, 5 mg/kg/day): 7 ng/ml and 13 nM
CSF level as % of brain level ([12]; mouse, 6 oral b.i.d. doses, 30-60 min after dosing): about 35%
concentration at 12 h ([12]; mouse, CSF, oral, 5 mg/kg/day, trough CSF range calculated from multiple brain samples, 5 mg/kg/d): 3.1 ng/mL to 7.6 ng/mL and 5.8 nM to 14 nM
half-life ([12]; mouse, brain, oral, 5 mg/kg/day, apparent brain half-life, 5 mg/kg/d for 3 days): ~16 h
IC50 [13]: > 250 µM
Pyk2 substrate binding ([13]; AZD0530 at concentrations up to 100 μM): unaffected
